TGI and GI50 data for eight molecules are collected here from PubChem BioAssay (NCI).

Among the test systems are BT-549 breast; NCI-H460 lung; OVCAR-4 ovarian; SK-MEL-5 melanoma; SF-268 CNS; DU-145 prostate; HOP-62 NSCLC; HS 578T breast; COLO 205 colon; MALME-3M melanoma.
Common to all, as to assay: inhibition of tumour cell growth, NCI panel, 48 h

Several values for one entry are separate records, joined by “and”; a condition that tells them apart may be missing. Identical values can stand only once.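 Values below derive from 48-hour exposures of cells grown in 96-well plates, with endpoints linearly interpolated between the two concentrations bracketing the appropriate inhibition level. At the GI50, growth is halved. TGI marks complete inhibition of growth.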

`Cl.[O-]c1cccc2cccnc12.[O-]c1cccc2cccnc12.[O-]c1cccc2cccnc12.[O-]c1cccc2cccnc12.[Ti+4]`: the TGI in the test with BT-549 breast was greater than 100 µM; in the test on NCI-H460 lung, 10.2 µM; in the test with SK-MEL-5 melanoma, 2.46 µM; in the test with SF-268 CNS it was greater than 100 µM; in the test with DU-145 prostate it was greater than 100 µM; in the test on HOP-62 NSCLC, 59.6 µM. The results for the TGI in the test on HS 578T breast, in the test with COLO 205 colon and in the test with MALME-3M melanoma were greater than 100 µM, 3.55 µM and greater than 40.2 µM, respectively. In addition, the GI50 with NCI-H460 lung was 1.28 µM; in the test on OVCAR-4 ovarian, 0.959 µM; with SF-268 CNS, 0.594 µM; in the test on DU-145 prostate, 10.5 µM; with HOP-62 NSCLC, 4.7 µM; in the test on HS 578T breast, greater than 100 µM. In addition, the figures for the GI50 with COLO 205 colon and in the test on MALME-3M melanoma were 1.08 µM and 1.91 µM, respectively.
As to `CC[C@H](C)C(=O)O[C@H]1CCC=C2C=C[C@H](C)[C@H](CC[C@@H]3C[C@@H](O)CC(=O)O3)[C@H]21`, the GI50 in the test with BT-549 breast is 14.4 µM; in the test with NCI-H460 lung, 8.59 µM; in the test on OVCAR-4 ovarian, 19.8 µM; in the test on SK-MEL-5 melanoma it was 3.39 µM; in the test on SF-268 CNS, 2.14 µM; with DU-145 prostate, 51.6 µM. Further, the GI50 was 12.4 µM in the test with HOP-62 NSCLC and 4.56 µM in the test on HS 578T breast. Further, the TGI in the test with BT-549 breast is greater than 78.5 µM; in the test on NCI-H460 lung, greater than 100 µM; in the test on OVCAR-4 ovarian, greater than 100 µM; in the test with SK-MEL-5 melanoma it was 13.6 µM; with SF-268 CNS it was greater than 100 µM; with DU-145 prostate, greater than 100 µM. Also, the TGI was greater than 100 µM in the test on HOP-62 NSCLC, greater than 100 µM in the test with HS 578T breast, 82 µM in the test on COLO 205 colon and greater than 100 µM in the test with MALME-3M melanoma.
Regarding `C=C1C(=O)O[C@H]2C3OC3(C)CC/C=C(/C(=O)OC)[C@@H](OC(C)=O)[C@H](OC(=O)C3(C)OC3C)[C@H]12` (stereo partly specified), the TGI in the test with BT-549 breast is 2.27 µM; in the test with NCI-H460 lung, 11.1 µM and 9.89 µg/mL; in the test with OVCAR-4 ovarian, 3.63 µM and 4.47 µg/mL; with SK-MEL-5 melanoma it was 3.87 µM and 7.72 µM and 9.58 µg/mL; in the test with SF-268 CNS it was 35.7 µM and 14.9 µg/mL; in the test with DU-145 prostate it was 29 µM. Moreover, the TGI with HOP-62 NSCLC was 24.3 µM and 18.1 µg/mL; in the test with HS 578T breast, 24.4 µM; with COLO 205 colon, 1.81 µM and 1.86 µM and 0.495 µg/mL; in the test with MALME-3M melanoma it was 4.35 µM and 0.941 µM. The GI50 in the test on NCI-H460 lung was 3.13 µM and 3.6 µg/mL; in the test on OVCAR-4 ovarian, 1.88 µM and 2.18 µg/mL; with SK-MEL-5 melanoma it was 1.88 µM and 1.91 µM and 2.6 µg/mL; in the test with SF-268 CNS, 2.44 µM and 3.42 µM and 4.97 µg/mL; in the test with HOP-62 NSCLC, 11.9 µM and 5.74 µg/mL; in the test on COLO 205 colon, 506 nM and 487 nM and 0.263 µg/mL. Further, in the test with MALME-3M melanoma, the GI50 is 1.25 µM and 0.257 µM.
Consider `CC(C)c1ccc(C(O)(C(=O)O)c2ccc(C(C)C)cc2)cc1`, for which the TGI in the test with BT-549 breast, with NCI-H460 lung, with OVCAR-4 ovarian, in the test on SK-MEL-5 melanoma, in the test on SF-268 CNS and with DU-145 prostate was greater than 100 µM throughout. Moreover, the TGI with HOP-62 NSCLC, in the test with HS 578T breast, in the test on COLO 205 colon and in the test on MALME-3M melanoma was greater than 100 µM throughout.
As to `COc1ccc2[nH]cc(Cc3c[nH]c4ccc(OC)cc34)c2c1`, the GI50 is 17.4 µM with BT-549 breast; 22.7 µM with NCI-H460 lung; 17.6 µM in the test on OVCAR-4 ovarian; 16.5 µM in the test on SK-MEL-5 melanoma; 22.7 µM with SF-268 CNS; 15.2 µM in the test with DU-145 prostate. For the same molecule, the GI50 with HS 578T breast is 15.6 µM; in the test with COLO 205 colon, 18.6 µM. The TGI in the test on BT-549 breast worked out at 36.1 µM; in the test on NCI-H460 lung it was 63.8 µM; in the test on OVCAR-4 ovarian, 40.3 µM; in the test with SK-MEL-5 melanoma, 30.1 µM; in the test on SF-268 CNS it was 62.5 µM; in the test on DU-145 prostate, 34 µM. Further, the TGI in the test on HS 578T breast is 49.6 µM; with COLO 205 colon it was 35.3 µM.
As to `COc1cc2c(cc1OC)-c1c(c3ccc([N+](=O)[O-])cc3c(=O)n1CCCN=[N+]=[N-])C2=O`, the GI50 is greater than 100 µM with BT-549 breast; 11.4 µM in the test on NCI-H460 lung; greater than 100 µM in the test on OVCAR-4 ovarian; 42.6 µM in the test on SK-MEL-5 melanoma; 41.7 µM in the test on SF-268 CNS; 86.1 µM in the test with DU-145 prostate. The GI50 was 29.8 µM with HOP-62 NSCLC, greater than 100 µM in the test with HS 578T breast and greater than 100 µM in the test with COLO 205 colon. Further, the TGI in the test with BT-549 breast, in the test with NCI-H460 lung, with OVCAR-4 ovarian, with SK-MEL-5 melanoma, in the test with SF-268 CNS and with DU-145 prostate was greater than 100 µM each time. Further, the TGI in the test with HOP-62 NSCLC, in the test on HS 578T breast and in the test with COLO 205 colon was greater than 100 µM throughout.
Regarding `N#Cc1ccc(O)c(C2=NCC(c3ccc(-c4ccccc4)cc3)O2)c1` (stereo unspecified), the GI50 in the test on BT-549 breast is 1.37 µM; in the test on NCI-H460 lung, 0.279 µM; in the test on OVCAR-4 ovarian, 0.32 µM; with SK-MEL-5 melanoma, 0.532 µM; in the test on SF-268 CNS it was 0.499 µM; in the test on DU-145 prostate, 0.732 µM. The GI50 is 0.41 µM in the test with HOP-62 NSCLC, 0.867 µM in the test on HS 578T breast, 0.349 µM in the test with COLO 205 colon and 1.71 µM in the test on MALME-3M melanoma. For the same molecule, the TGI with BT-549 breast came to 16.1 µM; in the test on NCI-H460 lung it was 8.75 µM; with OVCAR-4 ovarian, 10.1 µM; in the test on SK-MEL-5 melanoma, 2.28 µM; in the test with SF-268 CNS, 16.1 µM; with DU-145 prostate, 16 µM. The TGI in the test on HOP-62 NSCLC was 10.9 µM; with HS 578T breast, 31.9 µM; in the test with COLO 205 colon, 14.8 µM; with MALME-3M melanoma, 14.3 µM.
Turning to `COc1ccc(Cl)cc1Nc1nc(C(F)(F)F)ccc1C(=O)N/N=C/c1ccccc1Cl`, the GI50 in the test with BT-549 breast was 1.79 µM; with NCI-H460 lung, 1.13 µM; in the test on OVCAR-4 ovarian, 1.93 µM; in the test with SK-MEL-5 melanoma it was 0.583 µM; in the test on SF-268 CNS it was 2.22 µM; in the test on DU-145 prostate, 3.94 µM. The GI50 was 7.7 µM in the test with HOP-62 NSCLC, 3.2 µM in the test on HS 578T breast, 1.7 µM with COLO 205 colon and 1.75 µM in the test with MALME-3M melanoma. Further, the TGI with BT-549 breast is 8.82 µM; with NCI-H460 lung it was 4.53 µM; with OVCAR-4 ovarian, greater than 100 µM; with SK-MEL-5 melanoma, 2.96 µM; in the test with SF-268 CNS, greater than 23.2 µM; in the test with DU-145 prostate it was greater than 25.6 µM. Also, the TGI in the test with HOP-62 NSCLC is greater than 29.2 µM; with HS 578T breast, 40.7 µM; with COLO 205 colon, 4.18 µM; in the test on MALME-3M melanoma it was 9.54 µM.
